Reference: publication PMC4999912, “Anti-Dengue Virus Constituents from Formosan Zoanthid Palythoa mutuki” (Marine Drugs, 2016)
≈ marks a conversion by molar mass, not a printed value.

Experiments:
DENV-2 = assay: Anti-DENV activity assay, DENV RNA level by qRT-PCR in infected Huh-7 cells; type: cell-based, dengue virus 2; conditions: for EC50: DENV2, Huh-7 cells, MOI 0.2, treatment 2 h post infection, RNA at 72 h, read-out: EC50, half maximal effective concentration, anti-DENV-2 activity
Protocol: (§1) Huh-7 cells were cultured in Dulbecco’s modified Eagle’s medium (DMEM) containing 10% fetal bovine serum, 1% non-essential amino acids, and 1% antibiotic-antimycotic in a 5% CO2 at 37 °C. Huh-7 cells were seeded at 24-well plate at density 5 × 10^4 cells/well and infected by DENV infection at a multiplicity of infection (MOI) of 0.2 followed by test compounds treatment 2 h post infection. Total cellular RNA were harvested at 72 h post-infection, and DENV RNA level was analyzed using quantitative real-time reverse-transcription polymerase chain reaction (qRT-PCR) with specific primers against DENV NS5 gene. DENV RNA level was normalized by cellular glyceraldehydes-3-phosphate dehydrogenase (gapdh) mRNA level. 2′-C-methylcytidine (2′CMC) served as positive control. DENV of different serotypes (DENV-1: DN8700828; DENV-2: DN454009A; DENV-3: DN8700829A; DENV-4: S9201818) were obtained from the Centers for Disease Control, Department of Health, Taipei, Taiwan.

Cytotoxicity assay (MTS) = type: cell-based; conditions: human, Huh-7 cells, read-out: CC50, half maximal cytotoxicity concentration
Protocol: Huh-7 cells were seeded onto 96-well plate at a density of 5 × 10^3 cells per well, followed by compound treatment for 72 h. The cell viability was determined using a standard MTS assay (CellTiter 96® Aqueous One Solution Cell Proliferation assay system, Promega, Madison, WI, USA) according to the manufacturer’s instructions.

DENV [1] = type: cell-based, dengue virus; conditions: 10 μM, TCID50 assay
DENV-4 = assay: Anti-DENV activity assay, DENV RNA level by qRT-PCR in infected Huh-7 cells; type: cell-based; conditions: Dengue virus, DENV4, MOI 0.2, 72 h
Protocol: as §1

DENV-1 = assay: as above; type: cell-based; conditions: Dengue virus, DENV1, MOI 0.2, 72 h
Protocol: as §1

DENV-3 = assay: as above; type: cell-based; conditions: Dengue virus, DENV3, MOI 0.2, 72 h
Protocol: as §1

DENV NS2B/NS3 protease = DENV NS2B/NS3 protease (Dengue virus type 2, UniProt P29990); assay: cell-based
From the text: The DENV RdRp activity reporter system was used to determine the anti-DENV RdRp activity as described before. The NS3 protease reporter-based assay was used to determine the anti-DENV protease activity. The Huh-7 cells were transfected with DENV NS2B/NS3 protease reporter vector pEG(∆4B/5)NLuc carrying a specific DENV protease cleavage peptide sequences and the DENV protease expression vector. […] The supernatant was collected to analyze the nano luciferase (NLuc) activity by Nano-Glo® Luciferase Assay System following the manufacturer’s instructions (Promega, Madison, WI, USA).

DENV [2] = tested on: DENV; design: method as in PMID 22201648; conditions: cited from earlier work

DENV NS2B/NS3 protease, sequence (P29990 1476-2093): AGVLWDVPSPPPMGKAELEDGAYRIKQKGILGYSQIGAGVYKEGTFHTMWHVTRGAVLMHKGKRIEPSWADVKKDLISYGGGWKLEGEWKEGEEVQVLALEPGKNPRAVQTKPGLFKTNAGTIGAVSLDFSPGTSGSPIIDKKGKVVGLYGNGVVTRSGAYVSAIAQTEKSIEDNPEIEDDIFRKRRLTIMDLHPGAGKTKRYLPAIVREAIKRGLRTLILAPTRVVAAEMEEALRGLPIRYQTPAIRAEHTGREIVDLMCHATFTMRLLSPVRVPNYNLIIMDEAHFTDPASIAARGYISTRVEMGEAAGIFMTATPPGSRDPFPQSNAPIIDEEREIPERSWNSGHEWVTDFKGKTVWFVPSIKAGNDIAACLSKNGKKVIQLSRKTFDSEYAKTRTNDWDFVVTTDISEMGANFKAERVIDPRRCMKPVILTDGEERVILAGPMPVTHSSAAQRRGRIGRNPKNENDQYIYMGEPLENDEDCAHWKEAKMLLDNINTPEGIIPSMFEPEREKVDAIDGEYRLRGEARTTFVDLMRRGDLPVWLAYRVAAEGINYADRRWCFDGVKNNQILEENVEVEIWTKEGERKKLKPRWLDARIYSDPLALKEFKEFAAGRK
DENV NS2B/NS3 protease, sequence (P29990 1346-1475): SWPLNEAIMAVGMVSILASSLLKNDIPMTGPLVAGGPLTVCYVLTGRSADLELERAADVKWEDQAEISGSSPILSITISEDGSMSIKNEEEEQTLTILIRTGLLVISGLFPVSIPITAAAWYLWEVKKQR

For `C[C@@]1(O)[C@H](O)[C@@H](CO)O[C@H]1n1ccc(N)nc1=O` [2′CMC, 2′-C-methylcytidine, reference compound], the “SI, selectivity index, CC50/EC50” value (DENV-2; CC50 (Huh-7) / EC50 (DENV-2)) was >7.2, the EC50 (DENV-2; Dengue virus) was 13.23 ± 0.07 µM and the CC50 at 72 h (Cytotoxicity assay (MTS)) was 94.8 ± 4.15 µM.
For `CC(C)(O)CCC(O)C(C)(O)C1CCC2(O)C3=CC(=O)C4C(O)CCCC4(C)C3CCC12C` (centres unmarked) [Compound 1, palythone A], the “anti-DENV-2 activity in words” value (DENV-2) was “weak anti-DENV-2 activities” and the EC50 (DENV-2; Dengue virus) was 54 ± 2.17 µM.
With `CC(=O)O[C@H]1C[C@@]2(C)[C@@H](C[C@H]1O)C(=O)C=C1[C@@H]2CC[C@]2(C)[C@@H]([C@@](C)(O)[C@H](O)CCC(C)(C)O)CC[C@@]12O` [Compound 2, 20-hydroxyecdysone 2-acetate] the EC50 (DENV-2; Dengue virus) was > 100 µM and the CC50 at 72 h (Cytotoxicity assay (MTS)) was > 200 µM.
In the case of `CC(C)(O)CC[C@@H](O)[C@](C)(O)[C@H]1CC[C@@]2(O)C3=CC(=O)[C@@H]4CC[C@@H](O)C[C@]4(C)[C@H]3CC[C@]12C` [Compound 3, 3-deoxy-20-hydroxyecdysone], the EC50 (DENV-2; Dengue virus) is reported as > 100 µM and the CC50 at 72 h (Cytotoxicity assay (MTS)) is reported as > 200 µM.
For `C[C@@H](C[C@@H](O)[C@](C)(O)[C@H]1CC[C@@]2(O)C3=CC(=O)[C@@H]4C[C@@H](O)[C@@H](O)C[C@]4(C)[C@H]3CC[C@]12C)C(C)(C)O` [Compound 4, 24-epi-makisterone A], the “anti-DENV-2 activity in words” value (DENV-2) was “weak anti-DENV-2 activities” and the EC50 (DENV-2; Dengue virus) was 46.5 ± 0.59 µM.
In the case of `CC(=O)OC1CC(C)(C)C(=C=CC(C)=CC=CC=CC=C(C)C=C2C=C(C=CC34OC3(C)CC(O)CC4(C)C)C(=O)O2)C(C)(O)C1` (centres unmarked) [Compound 9, peridinin], the “decrease of the viral titer as compared to mock-treatment” value (DENV [1]) is reported as 2 ± 0.6 log10, the IC50 (DENV-2; Dengue virus, DENV2, Huh-7, read-out: IC50, antiviral activity (abstract)) is reported as 4.5 ± 0.46 µg/mL (≈ 7.13 µM) and the EC50 (DENV-2; Dengue virus) is reported as 4.5 ± 0.46 µM. For the same compound, the EC50 (DENV-4) was 6.51 ± 0.3 µM, the EC50 (DENV-1) was 7.62 ± 0.17 µM and the EC50 (DENV-3) was 5.84 ± 0.19 µM. It also gave a CC50 at 72 h (Cytotoxicity assay (MTS)) of 133 ± 3.21 µM and an EC50 (DENV NS2B/NS3 protease) of 8.5 ± 0.41 µM.
For `O=c1c(O)c(-c2ccc(O)c(O)c2)oc2cc(O)cc(O)c12` [quercetin], the “IC50, anti-DENV activity” value (DENV [2]) is given as 35.7 µg/mL (≈ 118 µM).
